From PubChem BioAssay AID330 (DTP/NCI, 2004)
Values joined by “and” are separate entries in the source; they are usually repeats but may differ in a detail not shown here. Equal entries are not always repeated. Toxic doses and inconclusive results are not listed. Rule for the calls: active = survival T/C of 150% or more; inactive = T/C below 125% in these data.

Tested on: P388 leukemia ip, CD2F1 mice, survival T/C
Test: NCI In Vivo Anticancer Drug Screen. Data for tumor model P388 Leukemia (intraperitoneal) in CD2F1 (CDF1) mice
Details: endpoint: median survival time, higher = longer survival
Summary of the method: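 Mice carrying the transplanted tumor received test compound or vehicle. Survival was recorded in each group, and the value is the treated-group measurement divided by that of the vehicle-treated control group.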

[1] = dose: 60.0 mg/kg/injection, schedule: Q01DX005 (ip), vehicle: saline
[2] = dose: 50.0 mg/kg/injection, schedule: Q01DX005 (ip), vehicle: saline with Tween-80
[3] = dose: 100.0 mg/kg/injection, schedule: Q01DX005 (ip), vehicle: saline with Tween-80
[4] = dose: 200.0 mg/kg/injection, schedule: Q01DX005 (ip), vehicle: saline with Tween-80
[5] = dose: 50.0 mg/kg/injection, schedule: Q01DX009 (ip), vehicle: saline with Tween-80
[6] = dose: 100.0 mg/kg/injection, schedule: Q01DX009 (ip), vehicle: saline with Tween-80

Measured: T/C

CC(N)C(=O)NC(Cc1ccccc1)C(=O)O (configuration not stated)
inactive: dose: 50.0 mg/kg/injection, schedule: Q01DX005 (ip), vehicle: saline 101 % of control | dose: 100.0 mg/kg/injection, schedule: Q01DX005 (ip), vehicle: saline 105 % of control | dose: 200.0 mg/kg/injection, schedule: Q01DX005 (ip), vehicle: saline 105 % of control

CCOC(=O)c1[nH]cc(C)c1-c1ccc(OCc2ccccc2)cc1
inactive: dose: 100.0 mg/kg/injection, schedule: Q01DX001 (ip), vehicle: saline with Tween-80 112 % of control | dose: 200.0 mg/kg/injection, schedule: Q01DX001 (ip), vehicle: saline with Tween-80 94 % of control | dose: 400.0 mg/kg/injection, schedule: Q01DX001 (ip), vehicle: saline with Tween-80 103 % of control

ONC(=Nc1ccc2ccccc2c1)C(=Nc1ccc2ccccc2c1)NO
inactive: dose: 50.0 mg/kg/injection, schedule: Q01DX005 (ip), vehicle: Klucel (hydroxypropylcellulose) (HPC) 95 % of control | dose: 100.0 mg/kg/injection, schedule: Q01DX005 (ip), vehicle: Klucel (hydroxypropylcellulose) (HPC) 90 % of control | dose: 200.0 mg/kg/injection, schedule: Q01DX005 (ip), vehicle: Klucel (hydroxypropylcellulose) (HPC) 94 % of control

O=C(O)O.[Eu]
inactive: dose: 50.0 mg/kg/injection, schedule: Q01DX009 (ip), vehicle: saline 95 % of control | dose: 200.0 mg/kg/injection, schedule: Q01DX009 (ip), vehicle: saline 93 % of control

CCN(CC)C1C(Br)c2ccccc2C(OC)N1C#N (configuration not stated)
inactive: dose: 50.0 mg/kg/injection, schedule: Q01DX005 (ip), vehicle: distilled water + Tween-80 + alcohol 103 % of control | dose: 100.0 mg/kg/injection, schedule: Q01DX005 (ip), vehicle: distilled water + Tween-80 + alcohol 107 % of control

CC(C)c1nccn1Cc1ccccc1
inactive: dose: 15.0 mg/kg/injection, schedule: Q01DX005 (ip), vehicle: saline 101 % of control | dose: 30.0 mg/kg/injection, schedule: Q01DX005 (ip), vehicle: saline 99 % of control | [1] 101 % of control and 90 % of control

CCOC(=O)C(CC)(COCc1ccccc1)C(=O)OCC
inactive: dose: 50.0 mg/kg/injection, schedule: Q01DX009 (ip), vehicle: other 100 % of control | dose: 100.0 mg/kg/injection, schedule: Q01DX009 (ip), vehicle: other 100 % of control | dose: 200.0 mg/kg/injection, schedule: Q01DX009 (ip), vehicle: other 100 % of control

O=c1[nH]cnc2nc(S(=O)(=O)F)[nH]c12
inactive: [2] 103 % of control | [3] 103 % of control | [4] 103 % of control

CCOC(=O)Cn1c(=S)sc2ccccc21
inactive: dose: 25.0 mg/kg/injection, schedule: Q01DX009 (ip), vehicle: saline with Tween-80 91 % of control | [5] 89 % of control | [6] 99 % of control | dose: 200.0 mg/kg/injection, schedule: Q01DX009 (ip), vehicle: saline with Tween-80 91 % of control

NC(=O)CCBr
inactive: [5] 101 % of control | [6] 97 % of control

C[N+]1(C)CC=CCC1c1ccccc1 (configuration not stated)
inactive: dose: 6.25 mg/kg/injection, schedule: Q01DX005 (ip), vehicle: saline 104 % of control | dose: 12.5 mg/kg/injection, schedule: Q01DX005 (ip), vehicle: saline 105 % of control | dose: 25.0 mg/kg/injection, schedule: Q01DX005 (ip), vehicle: saline 98 % of control

Cc1cc(N=Cc2c(CO)cnc(C)c2O)c(N=Cc2c(CO)cnc(C)c2O)cc1C.[Zn]
inactive: [2] 100 % of control | [3] 99 % of control | [4] 100 % of control

CC(CN(C)C)C(/C=C/c1ccccc1)=N\NC(=O)c1ccccc1 (configuration not stated)
inactive: [1] 97 % of control | dose: 120.0 mg/kg/injection, schedule: Q01DX005 (ip), vehicle: saline 96 % of control | dose: 240.0 mg/kg/injection, schedule: Q01DX005 (ip), vehicle: saline 97 % of control

CS/C(=C/c1ccc2ccccc2[n+]1C)N1CCCC1
inactive: dose: 0.1 mg/kg/injection, schedule: Q01DX005 (ip), vehicle: saline 103 % of control | dose: 0.2 mg/kg/injection, schedule: Q01DX005 (ip), vehicle: saline 99 % of control | dose: 0.4 mg/kg/injection, schedule: Q01DX005 (ip), vehicle: saline 100 % of control | dose: 0.78 mg/kg/injection, schedule: Q01DX005 (ip), vehicle: saline 116 % of control | dose: 1.56 mg/kg/injection, schedule: Q01DX005 (ip), vehicle: saline 111 % of control
